Measurements from patent publication US6294580A, “Substituted 4-hydroxy-phenylalcanoic acid derivatives with agonist activity to PPAR-gamma” (Glaxo Wellcome Inc., priority 1996, dated 2001).
Structures can show the parent of a compound that is named as a salt. Where two headings read alike, the source gives them in different places.

Key:
PPARg = assay: PPARgamma Transient Cotransfection Assay; type: cell-based; conditions: CAT reporter, read-out: PPARg EC50
hPPARgamma = target: T1, hPPARgamma (Homo sapiens, UniProt P37231); assay: hPPARgamma Ligand Binding Assay
T1 construct: 10x-histidine tag (N); made in house; host or cells: E. coli
T1 sequence (P37231 195-475 isoform P37231-2): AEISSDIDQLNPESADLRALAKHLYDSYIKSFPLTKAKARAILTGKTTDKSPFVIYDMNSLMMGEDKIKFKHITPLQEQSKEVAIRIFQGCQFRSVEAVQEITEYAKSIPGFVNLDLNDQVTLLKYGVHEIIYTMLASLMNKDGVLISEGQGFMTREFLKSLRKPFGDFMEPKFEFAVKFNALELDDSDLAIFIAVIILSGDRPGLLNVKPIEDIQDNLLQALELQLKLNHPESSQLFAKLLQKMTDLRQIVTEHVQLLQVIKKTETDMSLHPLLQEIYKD
Procedure: 2. hPPARgamma Ligand Binding Assay: The PPAR-gamma ligand binding domain (amino acids 195-475) was expressed with an N-terminal 10×-histidinetag in E. coli cells. The cells were lysed and receptor was purified by means of the epitope tag. The stock solution of protein was diluted to 200 nM in assay buffer (50 mM Tris, 50 mM KCl, pH 8 20 mM CHAPS, 2 mM EDTA 10 mM DTT (Fresh)) just before use.
Test compounds were prepared as 6 mM stock solutions in DMSO. […] The right-most column of wells was used for controls. […] Plates were incubated at room temperature for 2 hrs, and then cooled on ice for 30 minutes. 50 uL samples from each well of a single test plate were simultaneously loaded onto an equilibrated AGTC 96 well gel filtration block (Advanced Genetics Technology Corp.) using a Zymak Rapidplate automated pipettor. The block was placed on top of a clean microtiter plate and centrifuged @1,100×g for 4 min. 200 uL of scintillation fluid was added to each well, the plates were sealed and allowed to equilibrate for at least 4 hours before counting in a Wallac 1250 Microbeta counter.
Ki's were determined from a nonlinear least squares fit of the data to a simple competitive binding model.

[1] = read-out: PPARg Ki; competition with [3H]-BRL 49,653, room temperature 2 hrs
[2] = PPARg Ki, competition with [3H]-BRL 49,653, room temperature 2 hrs

Ki (hPPARgamma; competition with [3H]-BRL 49,653, room temperature 2 hrs; read-out: PPARg Ki) [nM] | Compound | EC50 (PPARg) [nM] | Ki (hPPARgamma; [1]) [nM] | Ki (hPPARgamma; [2]) [nM]
 | COC(=O)c1ccccc1N[C@@H](Cc1ccc(OCCSc2ccc(Cl)cn2)cc1)C(=O)O [Example 70] | 200 | 250 | 
 | O=C(c1ccccc1)c1ccccc1N[C@@H](Cc1ccc(OC[C@@H]2CSCN2c2nc3ccccc3o2)cc1)C(=O)O [Example 72, 3-[4-(3-Benzoxazol-2-yl-thiazolidin-4(R)-ylmethoxy)-phenyl]-2(S)-(2-benzoyl-phenylamino)-propionic acid] | 5 |  | 30
 | CN(CCOc1ccc(CC(Nc2ccccc2C(=O)c2ccc(C(F)(F)F)cc2)C(=O)O)cc1)c1nc2ccccc2o1 (stereo not drawn) [Example 73] | 25 |  | 115
 | CN(CCOc1ccc(CC(Nc2ccccc2C(=O)c2cccs2)C(=O)O)cc1)c1nc2ccccc2o1 (stereo not drawn) [Example 74] | 55 |  | 800
 | CN(CCOc1ccc(CC(Nc2ccccc2C(=O)c2ccsc2)C(=O)O)cc1)c1nc2ccccc2o1 (stereo not drawn) [Example 75] | 100 |  | 75
 | CN(CCOc1ccc(CC(Nc2ccccc2C(=O)c2cccc(C(F)(F)F)c2)C(=O)O)cc1)c1nc2ccccc2o1 (stereo not drawn) [Example 76] | 10 |  | 110
 | CN(CCOc1ccc(CC(Nc2ccccc2C(=O)c2ccccc2C(F)(F)F)C(=O)O)cc1)c1nc2ccccc2o1 (stereo not drawn) [Example 77] | 65 |  | 155
 | COc1cccc(C(=O)c2ccccc2NC(Cc2ccc(OCCN(C)c3nc4ccccc4o3)cc2)C(=O)O)c1 (stereo not drawn) [Example 78] | 200 |  | 40
 | COc1ccccc1C(=O)c1ccccc1NC(Cc1ccc(OCCN(C)c2nc3ccccc3o2)cc1)C(=O)O (stereo not drawn) [Example 79] | 30 |  | 50
 | Cc1cccc(C(=O)c2ccccc2NC(Cc2ccc(OCCN(C)c3nc4ccccc4o3)cc2)C(=O)O)c1 (stereo not drawn) [Example 80] | 10 |  | 10
 | Cc1oc(-c2ccccc2)nc1CCOc1ccc(CC(Nc2ccccc2C(=O)c2ccc(CN(C)C)cc2)C(=O)O)cc1 (stereo not drawn) [Example 81, 2-[2-(4-dimethylaminomethyl-benzoyl)-phenylamino]-3-{4-[2-(5-methyl-2-phenyl-oxazol-4-yl)-ethoxy]-phenyl}-propionic acid hydrochloride] | 400 |  | 130
 | Cc1oc(-c2ccccc2)nc1CCOc1ccc(CC(Nc2ccccc2C(=O)c2ccc(CN)cc2)C(=O)O)cc1 (stereo not drawn) [Example 82, 2-[2-(4-aminomethyl-benzoyl)-phenylamino]-3-{4-[2-(6-methyl-2-phenyl-oxazol-4-yl)-ethoxy]-phenyl}-propionic acid hydrochloride] | 25 |  | 65
 | Cc1cccc(C)c1C(=O)c1ccccc1NC(Cc1ccc(OCCN(C)c2nc3ccccc3o2)cc1)C(=O)O (stereo not drawn) [Example 83] | 165 |  | 350
 | Cc1oc(-c2ccccc2)nc1CCOc1ccc(CC(Nc2ccccc2C(=O)c2cccc(CN)c2)C(=O)O)cc1 (stereo not drawn) [Example 86, 2-[2-(3-aminomethyl-benzoyl)-phenylamino]-3-{4-[2-(5-methyl-2-phenyl-oxazol-4-yl)-ethoxy]-phenyl}-propionic acid hydrochloride] | 30 |  | 650
1160 | Cc1oc(-c2ccccc2)nc1CCOc1ccc(CC(Nc2ccccc2C(=O)c2cccc(CN(C)C)c2)C(=O)O)cc1 (stereo not drawn) [Example 87, 2-[2-(3-dimethylaminomethyl-benzoyl)-phenylamino]-3-{4-[2-(5-methyl-2-phenyl-oxazol-4-yl)-ethoxy]-phenyl}-propionic acid hydrochloride] | 465 |  | 
 | Cc1oc(-c2ccccc2)nc1CCOc1ccc(C[C@H](Nc2ccccc2C(=O)NCCN)C(=O)O)cc1 [Example 89, 2-(S)-(1-carboxy-2-{4-{2-(5-methyl-2-phenyl-oxazol-4-yl)-ethoxy]-phenyl}-ethylamino)-benzoic acid 2-aminoethyl amide hydrochloride] | 60 |  | 3000
 | CN(CCOc1ccc(CC(Nc2ccccc2C(=O)c2cccc(O)c2)C(=O)O)cc1)c1nc2ccccc2o1 (stereo not drawn) [Example 92, 3-{4-[2-(benzoxazol-2-yl-methyl-amino)-ethoxy]-phenyl}-2-[2-(3-hydroxy-benzoyl)-phenylamino]-propionic acid] | 400 |  | 20

Ki (hPPARgamma; competition with [3H]-BRL 49,653, room temperature 2 hrs; read-out: PPARg Ki) [nM] | Compound | EC50 (PPARg) [nM] | Ki (hPPARgamma; [1]) [nM] | Ki (hPPARgamma; [2]) [nM]
 | CCCNS(=O)(=O)c1ccc(C(=O)c2ccccc2NC(Cc2ccc(OCCc3nc(-c4ccccc4)oc3C)cc2)C(=O)O)cc1 (stereo not drawn) [Example 93, 3-{4-[2-(5-methyl-2-phenyl-oxazol-4-yl)-ethoxy]-phenyl}-2-[2-(4-propylsulfamoyl-benzoyl)-phenylamino]-propionic acid] | 55 |  | 100
 | Cc1oc(-c2ccccc2)nc1CCOc1ccc(CC(Nc2ccccc2C(=O)c2cccc(N)c2)C(=O)O)cc1 (stereo not drawn) [Example 94, 2-[2-(3-amino-benzoyl)-phenylamino]-3-{4-[2-(5-methyl-2-phenyl-oxazol-4-yl)-ethoxy]-phenyl}-propionic acid] | 10 |  | 40
 | Cc1oc(-c2ccccc2)nc1CCOc1ccc(CC(Nc2ccccc2C(=O)c2cccc(NS(C)(=O)=O)c2)C(=O)O)cc1 (stereo not drawn) [Example 95, 2-[2-(3-methanesulfonylamino-benzoyl)-phenylamino]-3-{4-[2-(5-methyl-2-phenyl-oxazol-4-yl)-ethoxy]-phenyl}-propionic acid] | 700 |  | 380
 | COC(=O)Nc1cccc(C(=O)c2ccccc2NC(Cc2ccc(OCCc3nc(-c4ccccc4)oc3C)cc2)C(=O)O)c1 (stereo not drawn) [Example 96, 2-[2-(3-methoxycarbonylamino-benzoyl)-phenylamino]-3-{4-[2-(5-methyl-2-phenyl-oxazol-4-yl)-ethoxy]-phenyl}-propionic acid] | 300 |  | 280
 | Cc1oc(-c2ccccc2)nc1CCOc1ccc(CC(Nc2ccccc2C(=O)c2cccc(O)c2)C(=O)O)cc1 (stereo not drawn) [Example 97, 2-[2-(3-hydroxy-benzoyl)-phenylamino]-3-{4-[2-(5-methyl-2-phenyl-oxazol-4-yl)-ethoxy]-phenyl}-propionic acid] | 20 |  | 5
 | Cc1oc(-c2ccccc2)nc1CCOc1ccc(CC(Nc2ccccc2C(=O)c2cccc(OCC(N)=O)c2)C(=O)O)cc1 (stereo not drawn) [Example 98, 2-[2-(3-Carbanoylmethoxy-benzoyl)-phenylamino]-3-{4-[2-(5-methyl-2-phenyl-oxazol-4-yl)-ethoxy]-phenyl}-propionic acid] | 375 |  | 10
 | COC(=O)c1ccccc1N[C@@H](Cc1ccc(OCCc2ccc(N(C)C)cc2)cc1)C(=O)O [Example 104, 2(S)-(1-carboxy-2-{4-[2-(4-dimethylamino-phenyl)-ethoxy]-phenyl}-ethylamino)-benzoic acid methyl ester] | 900 |  | 3000
 | COC(=O)c1ccccc1N[C@@H](Cc1ccc(OCCc2nc(N3CCN(C)CC3)sc2C)cc1)C(=O)O [Example 105] | 35 | 140 | 
 | COC(=O)c1ccccc1N[C@@H](Cc1ccc(OCCc2ccc(Cl)cc2)cc1)C(=O)O [Example 106, 2(S)-(1-carboxy-2-{4-[2-(4-chloro-phenyl)-ethoxy]-phenyl}-ethylamino)-benzoic acid methyl ester] | 300 |  | 140
 | COC(=O)c1ccccc1N[C@@H](Cc1ccc(OCCc2ccc(OC(F)(F)F)cc2)cc1)C(=O)O [Example 107, 2(S)-(1-carboxy-2-{4-[2-(4-trifluoromethoxy-phenyl)-ethoxy]-phenyl}-ethylamino)-benzoic acid methyl ester] | 190 |  | 40
 | CN(CCOc1ccc(CC(Nc2ccccc2C(=O)c2ccc(-c3ccccc3)cc2)C(=O)O)cc1)c1nc2ccccc2o1 (stereo not drawn) [Example 109, 3-{4-[2-(Benzoxazol-2-yl-methylamino)-ethoxy]-phenyl}-2-(2-(4-biphenylcarbonyl)-phenylamino)-propionic acid] | 200 |  | 700
 | COc1ccc(C(=O)c2ccccc2NC(Cc2ccc(OCCN(C)c3nc4ccccc4o3)cc2)C(=O)O)cc1 (stereo not drawn) [Example 110, 3-{4-[2-(Benzoxazol-2-yl-methylamino)-ethoxy]-phenyl}-2-(2-(4-methoxy-benzoyl)-phenylamino)-propionic acid] | 65 |  | 50
 | Cc1ccc(C(=O)c2ccccc2NC(Cc2ccc(OCCN(C)c3nc4ccccc4o3)cc2)C(=O)O)cc1 (stereo not drawn) [Example 111, 3-{4-[2-(Benzoxazol-2-yl-methylamino)-ethoxy]-phenyl}-2-(2-(4-methyl-benzoyl)-phenylamino)-propionic acid] | 10 |  | 70
 | Cc1ccccc1C(=O)c1ccccc1NC(Cc1ccc(OCCN(C)c2nc3ccccc3o2)cc1)C(=O)O (stereo not drawn) [Example 112, 3-{4-[2-(Benzoxazol-2-yl-methylamino)-ethoxy]-phenyl}-2-(2-(2-methyl-benzoyl)-phenylamino)-propionic acid] | 10 |  | 130
 | O=C(c1ccccc1)c1ccccc1N[C@@H](Cc1ccc(OCCSc2ccc(Cl)cc2)cc1)C(=O)O [Example 115, 2-(2-Benzoyl-phenylamino)-3-{4-2[-(4-chloro-phenylsulfanyl)ethoxy]-phenyl}-propionic acid] | 165 |  | 200
 | O=C(c1ccccc1)c1ccccc1NC(Cc1ccc(OCCc2cccnc2)cc1)C(=O)O (stereo not drawn) [Example 123, 2-(2-Benzoyl-phenylamino)-3-[4-(2-pyridin-3-yl-ethoxy]-phenyl]-propionic acid] | 620 |  | 280
